Test results taken from US9828375B2, “4-position substituted pyrazolopyrimidine derivative, and use thereof in drug preparation” (Guangxi Wuzhou Pharmaceuticals (Group) Co., Ltd., priority 2012, dated 2017).

Legend:
[1] = tested on: human malignant melanoma cell line WM2664
Description: The purpose of the experiment was to test the in vivo anti-tumor effect of the compound of the invention. […] The cell line used was human malignant melanoma cell line WM2664. The drug (sorafenib) undergoing anti-melanoma clinical trial was used as the positive control.
BALB/C nude mice at age of 6 to 8 weeks were used, and WM2664 cells were inoculated at the subcutaneous posterior ribs of the mice at a concentration of 5×106/0.1 mL/mouse; after the tumors grew to 200-300 mm^3 (for about 15 days), mice (n=6) were grouped and subject to oral intragastric administration.
Observation targets: Mouse weight and long and short diameters of tumor were measured every 3 days, and tumor volume (length×width^2×0.52) was calculated to observe for diarrhea, convulsion, rash, significant weight loss and other reactions.

[2] = tested on: human colorectal carcinoma cell line HT29; experiment: In vivo anti-tumor experiment, nude mouse-subcutaneous human colorectal carcinoma HT29 model; set-up: species or system BALB/C nude mice
Description: (§1) The cell lines used were human colorectal carcinoma cell line HT29 and human glioma cell line U251.

[3] = tested on: human glioma cell line U251; experiment: In vivo anti-tumor experiment, nude mouse-subcutaneous human glioma U251 model; set-up: species or system BALB/C nude mice
Description: as §1

[4] = daily dose of 30 mg/kg or above, oral
[5] = nude mice, 15-60 mg/kg q.d. oral

O=C(Nc1ccc(Oc2ncnc3[nH]ncc23)cc1)Nc1ccc(Cl)c(C(F)(F)F)c1 [4a-2]
effect compared with sorafenib ([1]; 4a-2 25 mg/kg/d vs sorafenib at daily dose of 50 mg/kg): more effective than sorafenib | in vivo tumor growth inhibition effect ([1]; dose of 25 mg/kg/d, oral, WM2664 (BRAF V600D) model): obviously inhibit tumor growth

O=C(Nc1ccc(Oc2ncnc3[nH]ncc23)cc1)Nc1cccc(C(F)(F)F)c1 [4a-6]
in vivo tumor growth inhibition effect [2, 4]: obviously inhibit tumor growth | weight loss, rash, diarrhea and other adverse reactions during administration [2, 5]: not found | in vivo tumor growth inhibition effect [3, 4]: obviously inhibit tumor growth | weight loss, rash, diarrhea and other adverse reactions during administration [3, 5]: not found
